Data taken from patent US20260053790A1, “TREATMENTS FOR CONDITIONS INVOLVING INCREASED IL-6 LEVELS” (X4 Pharmaceuticals, Inc., priority 2022, published 2026).

Tests used:
[1] = system: WM cells; test: Soluble IL-6 treatment of WM cells in the absence of BMSC: CXCR4 expression and IgM secretion; type: cell-based; details: blockade of IL-6/IL6R/STAT3 axis, FIG. 3
Source text: FIG. 3: Even in the Absence of BMSC, Soluble IL-6 Upregulates CXCR4 Expression & IgM Secretion in WM Cells; which is Prevented by Blockade of IL-6/IL6R/STAT3 Axis. BP-1-102 is a STAT3 inhibitor.

[2] = system: WM cells; test: Co-culture of BMSC with WM cells: BM stroma-induced IgM hypersecretion; type: cell-based; details: FIG. 2
[3] = system: IL-6; test: IL-6 overexpression and hypersecretion (co-culture of BMSC with WM cells); type: cell-based; details: mavorixafor as a single agent
[4] = in vivo; details: Terminal half-life
Method: In certain embodiments, the dosage composition may be provided twice a day in divided dosage, approximately 12 hours apart. In other embodiments, the dosage composition may be provided once daily. […] Dosage for oral administration may be from about 100 mg to about 1200 mg once or twice per day.

[5] = Solubility of mavorixafor by pH and in water; type: physicochemical
Method: Mavorixafor (formerly designated X4P-001 and AMD11070) is a CXCR4 antagonist, with molecular formula C21H27N5; molecular weight 349.48 amu; and appearance as a white to pale yellow solid. Solubility: freely soluble in the pH range 3.0 to 8.0 (>100 mg/mL), sparingly soluble at pH 9.0 (10.7 mg/mL) and slightly soluble at pH 10.0 (2.0 mg/mL). […] Melting point: 108.9° C.

Compound	Soluble IL-6-induced upregulation of CXCR4 expression in WM cells [1]	Soluble IL-6-induced upregulation of IgM secretion in WM cells [1]	Bone marrow stroma-induced IgM hypersecretion in WM cells [2]	Overexpression and hypersecretion of IL-6 [3]	half-life [4]	solubility ([5]; aqueous buffer, pH range 3.0 to 8.0 (freely soluble))	Solubility in water ([5]; water)
CN(CC(=O)N(Cc1ccc(C2CCCCC2)cc1)c1ccc(C(=O)O)c(O)c1)S(=O)(=O)c1c(F)c(F)c(F)c(F)c1F [BP-1-102]	Prevented	Prevented					
NCCCCN(Cc1nc2ccccc2[nH]1)[C@H]1CCCc2cccnc21 [Mavorixafor, mavorixafor]			blocks	significantly reduces	12 to 24 h	> 100 mg/mL	only slightly soluble
